In brackets after ≈: the same amount, converted by molar mass. Read-outs that look alike come from different tables or passages of the source.
Tests used:
[1] = Formation of a low-solubility polymer/drug complex (gel) on mixing polyanion sodium salt with the salt of the active ingredient
Excerpt: A “yes” entry means that a complex of low solubility forms on mixing the sodium salt of the polymers and the salt of the active ingredient.

[2] = tested on: P. Aeruginosa; conditions: cited from earlier work
[3] = tested on: S. Aureus; conditions: cited from earlier work
[4] = tested on: Enterobacter spp.; conditions: cited from earlier work
[5] = Distribution of amikacin between gelatinous precipitate and supernatant on mixing amikacin sulfate with dextran sulfate (Na); format: physicochemical; conditions: amikacin sulfate solution mixed with dextran sulfate (Na) solution
Excerpt: As part of the normal preparation of a solid dosage form based on calcium sulfate, a solution of amikacin sulfate was mixed with a solution of dextran sulfate (Na).

[6] = tested on: E. Coli; conditions: cited from earlier work
[7] = In vitro release profile of the drug polymer complex in PBS at 37° C.; format: physicochemical; conditions: ½ dextran sulfate Mw 40,000 (40,000-50,000) and ½ Mw 500,000, FIG. 6
Protocol: Release profile: Dextran sulfate/amikacin wet gel (100 mg) was placed in 2 ml centrifuge tube. PBS buffer (500 μl) was added to the centrifuged tube. After incubation at 37° C. for 24 hrs, the mixture was centrifuged at 13,000 RPM for 5 minutes. The supernatant was removed and analyzed microbiologically for the presence of drug. The process was repeated at 24 hr intervals for 31 days. The amount of released drug in the eluate was calculated from a standard curve.
The release profile is illustrated in FIG. 1. The release profiles for the compounds of the other Figures were generated in a similar manner.

[8] = mixing sodium salt of CMC-L (low viscosity carboxymethylcellulose) and salt of the active ingredient
[9] = mixing sodium salt of CMC-M (medium viscosity carboxymethylcellulose) and salt of the active ingredient
[10] = mixing sodium salt of Dextran Sulfate-500 and salt of the active ingredient

| Molecule | complex of low solubility forms (yes/no), polymer CMC-L [1, 8] | complex of low solubility forms (yes/no), polymer CMC-M [1, 9] | complex of low solubility forms (yes/no), polymer Dextran Sulfate-500 [1, 10] | complex of low solubility forms (yes/no), polymer Dextran Sulfate-500 [1] | further results |
| --- | --- | --- | --- | --- | --- |
| CCC(=O)C(CC(C)N(C)C)(c1ccccc1)c1ccccc1 (stereo not drawn) [Methadone] | no | no | yes |  |  |
| CCCNC(C)C(=O)Nc1ccccc1C (stereo not drawn) [Prilocaine] |  |  |  | yes |  |
| CN(C)[C@@H]1C(O)=C(C(N)=O)C(=O)[C@@]2(O)C(O)=C3C(=O)c4c(O)cccc4[C@@](C)(O)[C@H]3[C@H](O)[C@@H]12 [Oxytetracycline] |  |  |  | yes | complex of low solubility forms (yes/no), polymer CMC-L [1]: yes; complex of low solubility forms (yes/no), polymer CMC-M [1]: yes |
| O=C1CC[C@@]2(O)[C@H]3Cc4ccc(O)c5c4[C@@]2(CCN3CC2CC2)[C@H]1O5 [Naltrexone] | no | no | yes |  |  |
| CCCCNc1ccc(C(=O)OCCN(C)C)cc1 [Tetracaine] | yes | yes | yes |  |  |
| C[C@H]1c2cccc(O)c2C(=O)C2=C(O)[C@]3(O)C(=O)C(C(N)=O)=C(O)[C@@H](N(C)C)[C@@H]3[C@@H](O)[C@@H]21 [Doxycycline] | yes | yes | yes |  |  |
| CC[C@H]1OC(=O)[C@H](C)[C@@H](O[C@H]2C[C@@](C)(OC)[C@@H](O)[C@H](C)O2)[C@H](C)[C@@H](O[C@@H]2O[C@H](C)C[C@H](N(C)C)[C@H]2O)[C@](C)(O)C[C@@H](C)C(=O)[C@H](C)[C@@H](O)[C@]1(C)O [Erythromycin] |  |  |  | yes | complex of low solubility forms (yes/no), polymer CMC-L [1]: no; complex of low solubility forms (yes/no), polymer CMC-M [1]: no |
| CN(C)CCCN1c2ccccc2Sc2ccc(Cl)cc21 [Chlorpromazine] |  |  |  | yes | complex of low solubility forms (yes/no), polymer CMC-L [1]: yes; complex of low solubility forms (yes/no), polymer CMC-M [1]: yes |
| CCCCOc1cc(C(=O)NCCN(CC)CC)c2ccccc2n1 [Dibucaine] | yes | yes | yes |  |  |
| CN1CCc2cccc3c2[C@H]1Cc1ccc(O)c(O)c1-3 [Apomorphine] |  |  | yes |  |  |
| NCC[C@H](O)C(=O)N[C@@H]1C[C@H](N)[C@@H](O[C@H]2O[C@H](CN)[C@@H](O)[C@H](O)[C@H]2O)[C@H](O)[C@H]1O[C@H]1O[C@H](CO)[C@@H](O)[C@H](N)[C@H]1O [Amikacin] |  |  |  | yes | MIC [2]: 2 µg/mL (≈ 3.42 µM); MIC [3]: 1 µg/mL (≈ 1.71 µM); MIC [4]: 2 µg/mL (≈ 3.42 µM); amikacin included in the gelatinous precipitate [5]: > 90%; amikacin remaining in the supernatant [5]: < 10%; complex of low solubility forms (yes/no), polymer CMC-L [1]: no; MIC [6]: 2 µg/mL (≈ 3.42 µM) |
| Neomycin | no | no | yes |  |  |
| CCN(CC)CCOC(=O)c1ccc(N)cc1 [Procaine] |  |  | yes |  |  |
| NC[C@H]1O[C@H](O[C@H]2[C@H](O)[C@@H](O[C@H]3O[C@H](CO)[C@@H](O)[C@H](N)[C@H]3O)[C@H](N)C[C@@H]2N)[C@H](N)C[C@@H]1O [Tobramycin] |  |  | yes |  |  |
| CN[C@H](CC(C)C)C(=O)N[C@H]1C(=O)N[C@@H](CC(N)=O)C(=O)N[C@H]2C(=O)N[C@H]3C(=O)N[C@H](C(=O)N[C@H](C(=O)O)c4cc(O)cc(O)c4-c4cc3ccc4O)[C@H](O)c3ccc(c(Cl)c3)Oc3cc2cc(c3O[C@@H]2O[C@H](CO)[C@@H](O)[C@H](O)[C@H]2O[C@H]2C[C@](C)(N)[C@H](O)[C@H](C)O2)Oc2ccc(cc2Cl)[C@H]1O [Vancomycin] |  |  |  | yes | complex of low solubility forms (yes/no), polymer CMC-L [1]: yes |
| COc1cccc2c1C(=O)c1c(O)c3c(c(O)c1C2=O)C[C@@](O)(C(=O)CO)C[C@@H]3O[C@H]1C[C@H](N)[C@H](O)[C@H](C)O1 [Doxorubicin] | yes | yes | yes |  |  |
| COc1ccc2c3c1O[C@H]1C(=O)CC[C@@]4(O)[C@@H](C2)N(C)CC[C@]314 [Oxycodone] |  |  | yes |  | release rate compared to all (500,000) dextran sulfate complex [7]: increases the release rate; release rate compared to all (500,000) dextran sulfate complex ([7]; listed as oxycodone): accelerated |
| [H]/N=C(/N)N[C@H]1[C@H](O)[C@@H](O)[C@H](O[C@@H]2O[C@@H](C)[C@](O)(C=O)[C@H]2O[C@@H]2O[C@@H](CO)[C@H](O)[C@@H](O)[C@@H]2NC)[C@@H](N/C(N)=N\[H])[C@@H]1O [Streptomycin] |  |  | yes |  |  |
